# Data published in ChEMBL document CHEMBL2401704, “Inhibition of rhodesain as a novel therapeutic modality for human African trypanosomiasis” (J Med Chem, 2013).
# Residues, ends and D or L forms follow the SMILES beside them. *: point of attachment. Cbz = O=C(OCc1ccccc1)*; CHN2 = [N-]=[N+]=C*; CH2Cl = ClC*
# How the values were obtained:
# [1] = Inhibition of Plasmodium falciparum Falcipain 2
# [2] = Inhibition of Trypanosoma brucei rhodesain
# [3] = test system: Trypanosoma brucei brucei; assay: Antitrypanosomal activity against blood stream form of Trypanosoma brucei brucei; type: functional, organism-based
# Trypanosoma brucei [4] = assay: Inhibition of Trypanosoma brucei rhodesain assessed as second order rate constant
# Plasmodium falciparum = assay: Antiprotozoal activity against Plasmodium falciparum; type: functional, organism-based
# L6 = assay: Cytotoxicity against rat L6 cells; type: cell-based
# [5] = test system: Trypanosoma brucei rhodesiense; assay: Antitrypanosomal activity against Trypanosoma brucei rhodesiense; type: functional, organism-based
# [6] = test system: Trypanosoma brucei brucei; assay: Antitrypanosomal activity against Trypanosoma brucei brucei; type: functional, organism-based
# Rhodesain = Rhodesain (Trypanosoma brucei rhodesiense, UniProt Q95PM0); assay: Inhibition of Trypanosoma brucei rhodesiense rhodesain
# Sequence of Rhodesain (Q95PM0 whole entry): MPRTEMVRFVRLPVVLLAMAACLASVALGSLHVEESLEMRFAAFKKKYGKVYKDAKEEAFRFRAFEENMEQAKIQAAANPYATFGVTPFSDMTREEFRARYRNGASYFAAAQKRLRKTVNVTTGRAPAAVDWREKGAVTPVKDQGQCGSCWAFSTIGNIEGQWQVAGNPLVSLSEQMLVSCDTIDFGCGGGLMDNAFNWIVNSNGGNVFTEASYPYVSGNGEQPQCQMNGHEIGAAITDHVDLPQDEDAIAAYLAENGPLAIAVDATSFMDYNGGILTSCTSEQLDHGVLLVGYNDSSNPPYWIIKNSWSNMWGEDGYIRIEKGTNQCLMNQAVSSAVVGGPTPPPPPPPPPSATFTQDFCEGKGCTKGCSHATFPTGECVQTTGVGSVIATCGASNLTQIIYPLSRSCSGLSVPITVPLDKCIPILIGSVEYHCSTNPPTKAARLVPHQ
# [7] = Inhibition of Trypanosoma brucei recombinant rhodesain
# Trypanosoma brucei [8] = assay: Antitrypanosomal activity against Trypanosoma brucei; type: functional, organism-based
# [9] = test system: Trypanosoma brucei brucei; assay: Antitrypanosomal activity against procyclic form of Trypanosoma brucei brucei; type: functional; settings: read-out: ED50 (the source's name)
# Cruzipain = Cruzipain (Trypanosoma cruzi, UniProt P25779); assay: Inhibition of Trypanosoma cruzi cruzain
# Sequence of Cruzipain (P25779 whole entry): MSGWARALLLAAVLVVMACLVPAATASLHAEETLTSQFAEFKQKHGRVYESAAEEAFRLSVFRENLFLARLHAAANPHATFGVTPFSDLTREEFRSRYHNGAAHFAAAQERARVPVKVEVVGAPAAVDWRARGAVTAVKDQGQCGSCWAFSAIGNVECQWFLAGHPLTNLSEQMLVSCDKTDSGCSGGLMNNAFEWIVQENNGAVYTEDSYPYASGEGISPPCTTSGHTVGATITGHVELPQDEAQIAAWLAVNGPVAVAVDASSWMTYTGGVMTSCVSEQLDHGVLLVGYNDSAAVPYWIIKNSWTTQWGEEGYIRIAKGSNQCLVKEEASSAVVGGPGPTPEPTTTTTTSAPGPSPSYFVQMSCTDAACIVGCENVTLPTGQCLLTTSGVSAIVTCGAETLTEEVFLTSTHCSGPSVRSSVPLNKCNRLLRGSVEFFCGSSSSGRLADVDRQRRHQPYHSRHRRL
smiles,measurement,setting,value
N=C(NC(=O)OCc1ccccc1)NC(=O)c1ccc(C(=O)NCc2ccccc2)o1,Ki,[1],2690 nM
same,Ki,[2],2080 nM
[N-]=[N+]=CC(=O)[C@H](Cc1ccccc1)NC(=O)[C@H](Cc1ccccc1)NC(=O)OCc1ccccc1 (Cbz-Phe-Phe-CHN2),IC50,[3],4800 nM
C[C@H](NC(=O)[C@H](Cc1ccccc1)NC(=O)OCc1ccccc1)C(=O)C=[N+]=[N-],IC50,[3],6100 nM
O=C(N[C@@H](Cc1ccccc1)C(=O)N[C@H](/C=C/S(=O)(=O)c1ccccc1)CCc1ccccc1)OCc1ccccc1,K,Trypanosoma brucei [4],1.61 ×10⁷ /M/min
COCCNc1nc(C#N)nc(N(Cc2cccc(C(F)(F)F)c2)C2C3CC4CC(C3)CC2C4)n1 (stereo not drawn),IC50,Plasmodium falciparum,1800 nM
same,Ki,[1],9800 nM
same,IC50,L6,8100 nM
same,IC50,[5],19600 nM
CC(C)(C)OC(=O)Nc1cccc(CNC(=O)c2ccc(C(=O)NC(=N)NC(=O)OCc3ccccc3)o2)c1,IC50,[6],3210 nM
same,Ki,[1],3930 nM
same,Ki,[2],5290 nM
C[C@H](NC(=O)[C@H](Cc1ccccc1)NC(=O)OCc1ccccc1)C(=O)CF,IC50,[3],31000 nM
CCN(c1nc(C#N)nc(N2CCOCC2)n1)C1CCCCC1,IC50,Plasmodium falciparum,> 5000 nM
same,Ki,Rhodesain,100 nM
same,Ki,[1],80 nM
same,IC50,L6,45500 nM
same,IC50,[5],44100 nM
CC(C)[C@H](NC(=O)c1ccc2c(c1)OCCO2)C(=O)N(C)N(C)C#N,IC50,[7],5.4 nM
C/C(=N\N=C(\N)S)c1ccc(Nc2ccccc2)cc1,IC50,Trypanosoma brucei [8],4500 nM
same,IC50,[2],18000 nM
C/C(=N\NC(N)=S)c1cccc(/C(C)=N/NC(N)=S)c1,IC50,Trypanosoma brucei [8],> 20000 nM
same,IC50,[2],330 nM
CCCC1CCC(N(Cc2ccc3c(c2)OCO3)c2nc(C#N)nc(N3CCOCC3)n2)CC1 (stereo not drawn),IC50,Plasmodium falciparum,2400 nM
same,Ki,Rhodesain,2 nM
same,Ki,[1],1030 nM
same,IC50,L6,5900 nM
same,IC50,[5],31200 nM
CCCCCN(C#N)N(C)C(=O)[C@H](Cc1ccccc1)NC(=O)OCc1ccccc1,IC50,[7],0.06 nM
same,EC50,[9],700 nM
same,EC50,[3]; read-out: ED50 (the source's name),1400 nM
CS/C(S)=N/N=C(\C)c1ccccn1,IC50,Trypanosoma brucei [8],300 nM
same,IC50,[2],> 20000 nM
O=C(N[C@@H](Cc1ccccc1)C(=O)N[C@@H](Cc1ccccc1)C(=O)CCl)OCc1ccccc1 (Cbz-Phe-Phe-CH2Cl),IC50,[3],3600 nM
O=C(N[C@@H](Cc1ccccc1)C(=O)N[C@H](/C=C/S(=O)(=O)CCc1ccccc1)CCc1ccccc1)OCc1ccccc1,K,Trypanosoma brucei [4],1.09 ×10⁷ /M/min
N=C(NC(=O)OCc1ccccc1)NC(=O)c1ccc(C(=O)NCc2cccc(NC(=O)OCc3ccccc3)c2)o1,IC50,[6],8310 nM
same,Ki,[1],1150 nM
same,Ki,[2],50 nM
CCCCCN(C#N)N(C)C(=O)[C@@H](NC(=O)c1ccc2c(c1)OCCO2)C(C)C,IC50,[7],54.6 nM
CC(C)C[C@H](NC(=O)c1ccc2c(c1)OCCO2)C(=O)N(C)N(C#N)Cc1ccccc1,IC50,[7],0.33 nM
CN(C(=O)[C@H](Cc1ccccc1)NC(=O)c1ccc2c(c1)OCCO2)N(C#N)CCCc1ccccc1,IC50,[7],0.24 nM
CN(C(=O)[C@H](Cc1ccccc1)NC(=O)c1ccc2c(c1)OCCO2)N(C#N)CCc1ccccc1,IC50,[7],1.86 nM
NC(=S)/N=N/c1c(O)[nH]c2ccccc12,IC50,[2],3500 nM
CC(C)C[C@H](NC(=O)N1CCOCC1)C(=O)N[C@H](/C=C/S(=O)(=O)c1ccccc1)CCc1ccccc1,K,Trypanosoma brucei [4],15.8 ×10⁶ /M/min
CN(C#N)N(C)C(=O)[C@H](Cc1ccccc1)NC(=O)OC(C)(C)C,IC50,[7],0.06 nM
CC(C)C[C@H](NC(=O)c1ccc2c(c1)OCCO2)C(=O)N(C)N(C)C#N,IC50,[7],0.06 nM
CC(C)[C@H](NC(=O)c1ccc2c(c1)OCCO2)C(=O)N(C)N(C#N)CCc1ccccc1,IC50,[7],35.1 nM
O=C(N[C@@H](Cc1ccccc1)C(=O)N[C@H](/C=C/S(=O)(=O)Cc1ccccc1)CCc1ccccc1)OCc1ccccc1,K,Trypanosoma brucei [4],5.35 ×10⁷ /M/min
NC(=S)/N=N/c1c(O)[nH]c2ccc(I)cc12,IC50,[2],1000 nM
CC(C)(C)OC(=O)NCc1cccc(NC(=O)c2ccc(C(=O)NC(=N)NC(=O)OCc3ccccc3)[nH]2)c1,IC50,[6],220 nM
same,Ki,[1],620 nM
same,Ki,[2],110 nM
C/C(=N\N=C(\N)S)c1cccc(Br)c1,IC50,Trypanosoma brucei [8],> 20000 nM
same,IC50,[2],50 nM
O=C(N[C@@H](Cc1ccccc1)C(=O)N[C@H](/C=C/S(=O)(=O)Nc1ccccc1)CCc1ccccc1)OCc1ccccc1,K,Trypanosoma brucei [4],2.24 ×10⁶ /M/min
N#Cc1nc(N2CCOCC2)nc(N(Cc2ccc3c(c2)OCO3)C2CCCCC2)n1,IC50,Plasmodium falciparum,2900 nM
same,Ki,Rhodesain,8 nM
same,Ki,[1],20 nM
same,IC50,L6,11100 nM
same,IC50,[5],30100 nM
CN(C(=O)[C@H](Cc1ccccc1)NC(=O)OCc1ccccc1)N(C#N)CCc1ccccc1,IC50,[7],0.81 nM
CCCC/C(=N\NC(N)=S)c1ccc(Cl)c(Cl)c1,IC50,[5],130 nM
CN(C#N)N(C)C(=O)[C@H](Cc1ccccc1)NC(=O)c1ccc2c(c1)OCCO2,IC50,[7],0.14 nM
O=C1C(=O)N(S(=O)(=O)c2ccccc2)c2ccccc21,IC50,[2],15000 nM
N#Cc1nc(N2CCOCC2)nc(N(Cc2cccc(C(F)(F)F)c2)C2C3CC4CC(C3)CC2C4)n1 (stereo not drawn),IC50,Plasmodium falciparum,1100 nM
same,Ki,[1],12900 nM
same,IC50,L6,23200 nM
same,IC50,[5],27500 nM
C/C(=N\N=C(\N)S)c1cccc(-c2ccccc2)c1,IC50,Trypanosoma brucei [8],12000 nM
same,IC50,[2],1100 nM
CCN(CC)/C(S)=N/N=C(\C)c1cccc(Br)c1,IC50,Trypanosoma brucei [8],3000 nM
same,IC50,[2],1800 nM
C[C@H](NC(=O)[C@H](Cc1ccccc1)NC(=O)OCc1ccccc1)C(=O)CCl,IC50,[3],21000 nM
C/C(=N\N=C(/S)N1CCCCC1)c1cccc(Br)c1,IC50,Trypanosoma brucei [8],3000 nM
same,IC50,[2],4000 nM
CC(C)[C@H](NC(=O)c1ccc2c(c1)OCCO2)C(=O)N(C)N(C#N)Cc1ccccc1,IC50,[7],15.8 nM
CCCc1c(NC(=O)Nc2ccc(OC(F)(F)F)cc2)cnn1-c1ccc(Cl)cc1,IC50,Cruzipain,< 10000 nM
same,IC50,[2],< 10000 nM
O=C(NC(=S)Nc1ncccc1OCc1ccccc1)c1cccn1S(=O)(=O)c1ccccc1,IC50,Cruzipain,3000 nM
same,IC50,[2],3500 nM
O=C(NC(=S)Nc1ccc(O)cc1)c1sc2ccccc2c1Cl,IC50,Cruzipain,< 10000 nM
same,IC50,[2],< 10000 nM
C/C(=N\N=C(\N)S)c1cccc(Nc2ccccc2)c1,IC50,Trypanosoma brucei [8],8000 nM
same,IC50,[2],800 nM
CSc1cccc(NC(=O)Nc2sc3ccccc3c2Cl)c1,IC50,Cruzipain,< 10000 nM
same,IC50,[2],< 10000 nM
C/C(=N\N=C(\N)S)c1ccc(Oc2ccccc2)cc1,IC50,Trypanosoma brucei [8],3000 nM
same,IC50,[2],8000 nM
O=C1C(=O)N(C(=O)OCc2ccccc2)c2ccccc21,IC50,[2],30000 nM
O=C(N[C@@H](Cc1ccccc1)C(=O)N[C@H](/C=C/S(=O)(=O)Oc1ccccc1)CCc1ccccc1)OCc1ccccc1,K,Trypanosoma brucei [4],3.48 ×10⁸ /M/min
C/C(=N\N=C(/S)N1CCN(C)CC1)c1cccc(Br)c1,IC50,Trypanosoma brucei [8],2000 nM
same,IC50,[2],4000 nM
CN(C#N)N(C)C(=O)[C@H](Cc1ccccc1)NC(=O)OCc1ccccc1,IC50,[7],0.4 nM
N=C(NC(=O)OCc1ccccc1)NC(=O)c1ccc(C(=O)NCc2ccccc2)[nH]1,IC50,[6],9170 nM
same,Ki,[1],7810 nM
same,Ki,[2],50 nM
CC(C)C[C@H](NC(=O)c1ccc2c(c1)OCCO2)C(=O)N(C)N(C#N)CCCc1ccccc1,IC50,[7],0.14 nM
N=C(NC(=O)OCc1ccccc1)NC(=O)c1ccc(C(=O)NCc2ccc(NC(=O)OCc3ccccc3)cc2)[nH]1,IC50,[6],> 100000 nM
same,Ki,[1],870 nM
same,Ki,[2],28 nM
N#Cc1nc(N2CCOCC2)nc(N(c2ccccc2)c2ccccc2)n1,IC50,Plasmodium falciparum,> 5000 nM
same,Ki,Rhodesain,36 nM
same,Ki,[1],42 nM
same,IC50,L6,22000 nM
same,IC50,[5],18900 nM
N/C(S)=N/N=C(\C=C\c1ccccc1)c1ccc(Cl)c(Cl)c1,IC50,[5],72 nM
CC(C)C[C@H](NC(=O)c1ccc2c(c1)OCCO2)C(=O)N(C)N(C#N)CCc1ccccc1,IC50,[7],0.71 nM
C/C(=N\N=C(\N)S)c1ccc(-c2ccccc2)cc1,IC50,Trypanosoma brucei [8],10000 nM
same,IC50,[2],90 nM
N=C(NC(=O)OCc1ccccc1)NC(=O)c1ccc(C(=O)NCc2cccc(NC(=O)OCc3ccccc3)c2)[nH]1,IC50,[6],2320 nM
same,Ki,[1],1620 nM
same,Ki,[2],100 nM
CCCCCN(C#N)N(C)C(=O)[C@H](Cc1ccccc1)NC(=O)c1ccc2c(c1)OCCO2,IC50,[7],1.34 nM
CN(C(=O)[C@H](Cc1ccccc1)NC(=O)c1ccc2c(c1)OCCO2)N(C#N)Cc1ccccc1,IC50,[7],0.51 nM
C/C(=N\N=C(\N)S)c1cccc(Oc2ccccc2)c1,IC50,Trypanosoma brucei [8],6000 nM
same,IC50,[2],550 nM
N#Cc1nc(N2CCOCC2)nc(N(c2ccccc2F)C2CCCCC2)n1,IC50,Plasmodium falciparum,> 5000 nM
same,Ki,Rhodesain,11 nM
same,Ki,[1],25 nM
same,IC50,L6,11400 nM
same,IC50,[5],15000 nM
CCCCCN(C#N)N(C)C(=O)[C@H](CC(C)C)NC(=O)c1ccc2c(c1)OCCO2,IC50,[7],0.33 nM
CC(C)[C@H](NC(=O)c1ccc2c(c1)OCCO2)C(=O)N(C)N(C#N)CCCc1ccccc1,IC50,[7],54 nM
